Laboratory results from the supplement of paper PMC11208160.

Experiment: recombinant UMI read abundance after kanamycin selection (control-corrected) (log10(CPM+1)); higher = more efficient recombination; extreme values may be limits of the assay; sequences stand for … in AGTGCAGAGAAAATCGGCCAGTTTTCTCTGCCTGCAGTCCGCATGCCGTGGGACCCCTTGGGTTCTAACCTGTTGCCTAGATTTATGCAGCGGACTGCCTTTCTCCCAAAGTGATAAACCGG…AGGTTGGTTTCACT; site = the 11-nt donor
In short: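 After plating on IPTG (0.07 mM) plus kanamycin, or unselected, in two replicates, recombinant UMIs were PCR-amplified across the donor–target junction and sequenced. The cells were Escherichia coli co-electroporated with a UMI-tagged donor and donor-binding-loop pair library and a target plasmid with a fixed target and T7-inducible IS621 bridge recombinase. Values are log10(CPM+1), with CPM averaged over replicates and scaled by control-derived factors.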

Row | Sequence | recombinant UMI read abundance (log10)
1 | AGTCTAGCATGGACCGGTTTTCCCGGTAATCCGTATTTGTT (site AGGCTAGCTAA) | 0.0213
2 | AGTCTAGCATGGACCGGTTTTCCCGGTAATCCGTATTTGTT (site AGTCTAGCTAA) | 0.0147
3 | AGTCTGACATGGACCGGTTTTCCCGGTAATCCGTATTTGGA (site AGTCTGACTTC) | 0.729
4 | AGTCTTTCATGGACCGGTTTTCCCGGTAATCCGTATTTGAC (site AGACTTTCTGT) | 0
5 | AGTCTTTCATGGACCGGTTTTCCCGGTAATCCGTATTTGAC (site AGCCTTTCTGT) | 0.743
6 | AGTCTTTCATGGACCGGTTTTCCCGGTAATCCGTATTTGAC (site AGGCTTTCTGT) | 0
7 | AGTCTTTCATGGACCGGTTTTCCCGGTAATCCGTATTTGAC (site AGTCTTTCTGT) | 0
8 | AGTGACTCATGGACCGGTTTTCCCGGTAATCCGTATTTGCG (site AGTGACTCTCG) | 2.88
9 | AGTGAGACATGGACCGGTTTTCCCGGTAATCCGTATTTGGG (site AGTGAGACTCC) | 0.00984
10 | AGTGATCCATGGACCGGTTTTCCCGGTAATCCGTATTTGGT (site AGTGATCCTAC) | 0.0964
11 | AGTGCGACATGGACCGGTTTTCCCGGTAATCCGTATTTGCA (site AGTGCGACTTG) | 1.38
12 | AGTGGAACATGGACCGGTTTTCCCGGTAATCCGTATTTGTC (site AGTGGAACTGA) | 2.3
13 | AGTGGCCCATGGACCGGTTTTCCCGGTAATCCGTATTTGCG (site AGTGGCCCTCG) | 0.0207
14 | AGTGGCGCATGGACCGGTTTTCCCGGTAATCCGTATTTGTC (site AGTGGCGCTGA) | 2.86
15 | AGTTACGCATGGACCGGTTTTCCCGGTAATCCGTATTTGAT (site AGTTACGCTAT) | 1.72
16 | AGTTCCCCATGGACCGGTTTTCCCGGTAATCCGTATTTGTA (site AGTTCCCCTTA) | 0.124
17 | AGTTCCCCATGGACCGGTTTTCCCGGTAATCCGTATTTGTA (site CGTTCCCCTTA) | 0.025
18 | AGTTCCCCATGGACCGGTTTTCCCGGTAATCCGTATTTGTA (site GGTTCCCCTTA) | 0.013
19 | AGTTCCCCATGGACCGGTTTTCCCGGTAATCCGTATTTGTA (site TGTTCCCCTTA) | 0.0167
20 | ATAAGAACATGGACCGGTTTTCCCGGTAATCCGTATTTGGG (site ATAAGAACTCC) | 0.884
21 | ATAAGATCATGGACCGGTTTTCCCGGTAATCCGTATTTGAA (site ATAAGATCTTT) | 2.8
22 | ATAAGGACATGGACCGGTTTTCCCGGTAATCCGTATTTGAC (site ATAAGGACTGT) | 2.34
23 | ATAAGGACATGGACCGGTTTTCCCGGTAATCCGTATTTGAC (site ATAAGGCCTGT) | 0
24 | ATAAGGACATGGACCGGTTTTCCCGGTAATCCGTATTTGAC (site ATAAGGGCTGT) | 2.31
25 | ATAAGGACATGGACCGGTTTTCCCGGTAATCCGTATTTGAC (site ATAAGGTCTGT) | 1.93

Row | Sequence | recombinant UMI read abundance (log10)
26 | ATAAGGCCATGGACCGGTTTTCCCGGTAATCCGTATTTGGC (site ATAAGGCCTGA) | 0
27 | ATAAGGCCATGGACCGGTTTTCCCGGTAATCCGTATTTGGC (site ATAAGGCCTGC) | 2.31
28 | ATAAGGCCATGGACCGGTTTTCCCGGTAATCCGTATTTGGC (site ATAAGGCCTGG) | 0
29 | ATAAGGCCATGGACCGGTTTTCCCGGTAATCCGTATTTGGC (site ATAAGGCCTGT) | 0.68
30 | ATACAAGCATGGACCGGTTTTCCCGGTAATCCGTATTTGAC (site ATACAAGCTGT) | 2.38
31 | ATACCACCATGGACCGGTTTTCCCGGTAATCCGTATTTGGT (site ATACCACCTAC) | 0.0125
32 | ATACCGTCATGGACCGGTTTTCCCGGTAATCCGTATTTGGG (site ATACCGTCTCC) | 0.0133
33 | ATACTATCATGGACCGGTTTTCCCGGTAATCCGTATTTGTT (site ATACTATCTAA) | 2.54
34 | ATAGCATCATGGACCGGTTTTCCCGGTAATCCGTATTTGCA (site ACAGTATCTTG) | 1.65
35 | ATAGCATCATGGACCGGTTTTCCCGGTAATCCGTATTTGCA (site ATAGCATCTTG) | 2.9
36 | ATAGGTGCATGGACCGGTTTTCCCGGTAATCCGTATTTGGC (site ATAGGTGCTGC) | 3.17
37 | ATAGTATCATGGACCGGTTTTCCCGGTAATCCGTATTTGTA (site ACAGTATCTTG) | 0.029
38 | ATAGTATCATGGACCGGTTTTCCCGGTAATCCGTATTTGTA (site ATAGTATCTTA) | 3.14
39 | ATAGTCGCATGGACCGGTTTTCCCGGTAATCCGTATTTGCG (site ATAGTCGCTCG) | 1.37
40 | ATAGTCGCATGGACCGGTTTTCCCGGTAATCCGTATTTGCG (site CTAGTCGCTCG) | 0.303
41 | ATAGTCGCATGGACCGGTTTTCCCGGTAATCCGTATTTGCG (site GTAGTCGCTCG) | 0.0129
42 | ATAGTCGCATGGACCGGTTTTCCCGGTAATCCGTATTTGCG (site TTAGTCGCTCG) | 0.00819
43 | ATAGTCTCATGGACCGGTTTTCCCGGTAATCCGTATTTGAG (site ATAGTCTCTCT) | 2
44 | ATAGTGGCATGGACCGGTTTTCCCGGTAATCCGTATTTGGC (site ATAGTGGCTGC) | 2.85
45 | ATAGTTTCATGGACCGGTTTTCCCGGTAATCCGTATTTGCA (site ACAGTATCTTG) | 1.49
46 | ATAGTTTCATGGACCGGTTTTCCCGGTAATCCGTATTTGCA (site ATAGTTTCTTG) | 2.47
47 | ATATAGACATGGACCGGTTTTCCCGGTAATCCGTATTTGCT (site ATATAGACTAG) | 2.72
48 | ATATCGCCATGGACCGGTTTTCCCGGTAATCCGTATTTGAT (site ATATCGCCTAT) | 0.284
49 | ATATCTGCATGGACCGGTTTTCCCGGTAATCCGTATTTGTA (site ATATCTGCTTA) | 2
50 | ATATTCACATGGACCGGTTTTCCCGGTAATCCGTATTTGTT (site ATATTCACTAA) | 1.75

Row | Sequence | recombinant UMI read abundance (log10)
51 | ATCAAGACATGGACCGGTTTTCCCGGTAATCCGTATTTGCA (site AGGAAGACTTG) | 0.783
52 | ATCAAGACATGGACCGGTTTTCCCGGTAATCCGTATTTGCA (site ATCAAGACTTG) | 2.31
53 | ATCAAGGCATGGACCGGTTTTCCCGGTAATCCGTATTTGTC (site ATCAAGGCTGA) | 1.53
54 | ATCAATACATGGACCGGTTTTCCCGGTAATCCGTATTTGCA (site ATCAATACTTG) | 1.44
55 | ATCATTGCATGGACCGGTTTTCCCGGTAATCCGTATTTGGC (site ATCATTGCTGC) | 2.13
56 | ATCCAAGCATGGACCGGTTTTCCCGGTAATCCGTATTTGAA (site ATCCAAGCTAT) | 0.379
57 | ATCCAAGCATGGACCGGTTTTCCCGGTAATCCGTATTTGAA (site ATCCAAGCTCT) | 0.445
58 | ATCCAAGCATGGACCGGTTTTCCCGGTAATCCGTATTTGAA (site ATCCAAGCTGT) | 0.751
59 | ATCCAAGCATGGACCGGTTTTCCCGGTAATCCGTATTTGAA (site ATCCAAGCTTT) | 1.29
60 | ATCCAAGCATGGACCGGTTTTCCCGGTAATCCGTATTTGGG (site ATCCAAGCTCA) | 0.0113
61 | ATCCAAGCATGGACCGGTTTTCCCGGTAATCCGTATTTGGG (site ATCCAAGCTCC) | 0.365
62 | ATCCAAGCATGGACCGGTTTTCCCGGTAATCCGTATTTGGG (site ATCCAAGCTCG) | 0.0298
63 | ATCCAAGCATGGACCGGTTTTCCCGGTAATCCGTATTTGGG (site ATCCAAGCTCT) | 0.00791
64 | ATCCAATCATGGACCGGTTTTCCCGGTAATCCGTATTTGAG (site ATCCAAACTCT) | 0.00423
65 | ATCCAATCATGGACCGGTTTTCCCGGTAATCCGTATTTGAG (site ATCCAACCTCT) | 0.0188
66 | ATCCAATCATGGACCGGTTTTCCCGGTAATCCGTATTTGAG (site ATCCAAGCTCT) | 0.0117
67 | ATCCAATCATGGACCGGTTTTCCCGGTAATCCGTATTTGAG (site ATCCAATCTCT) | 1.04
68 | ATCCAGGCATGGACCGGTTTTCCCGGTAATCCGTATTTGAG (site ATCCAAGCTCT) | 0.547
69 | ATCCAGGCATGGACCGGTTTTCCCGGTAATCCGTATTTGAG (site ATCCACGCTCT) | 0.013
70 | ATCCAGGCATGGACCGGTTTTCCCGGTAATCCGTATTTGAG (site ATCCAGGCTCT) | 0
71 | ATCCAGGCATGGACCGGTTTTCCCGGTAATCCGTATTTGAG (site ATCCATGCTCT) | 0.382
72 | ATCCAGGCATGGACCGGTTTTCCCGGTAATCCGTATTTGCC (site ATCCAGGCTGG) | 0
73 | ATCCATACATGGACCGGTTTTCCCGGTAATCCGTATTTGAC (site ATCAATACTGT) | 0
74 | ATCCATACATGGACCGGTTTTCCCGGTAATCCGTATTTGAC (site ATCCATACTGT) | 1.77
75 | ATCCATACATGGACCGGTTTTCCCGGTAATCCGTATTTGAC (site ATCGATACTGT) | 0
